Measured values published in patent publication US20110059850A1, “PHYTOTOXIC HALOGENATED DERIVATIVES OF BENZOXAZINONES” (UNIVERSIDAD DE CÁDIZ, priority 2006, published 2011).

Key:
[1] = system: Lolium rigidum L. (ryegrass), common biotype and biotype multiresistant to herbicides SLR31; experiment: phytotoxicity bioassay in Petri dishes, L. rigidum biotypes; assay type: in vivo; details: common biotype versus multiresistant biotype SLR31
Method: (§1) The phytotoxicity bioassays for the compounds object of the invention are performed by means of the protocol of phytotoxicity bioassays in Petri dishes developed by the Grupo de Alelopatía de Cádiz (Cádiz Allelopathy Group) (see, for example: Macías, F. A.; Castellano, D.; Molinillo, J. M. G.; J. Agric. Food Chem. 2000, 48, 6, 2512-2521).
(§2) This assay attempts to imitate the natural conditions of the action of the products to be assayed on seeds of selected plant species, therefore the products are supplied in the form of aqueous solution in a Petri dish in which a certain number of seeds of each receiving species is introduced. The concentration range used allows observing the relationship between the phytotoxic activity of the product and its concentration. The dilutions assayed were 10^−3 M, 5·10^−4 M, 10^−4 M, 5·10^−5 M, 10^−5 M, 5·10^−6 M, 10^−6 M, 5·10^−7, 10^−7 and 5·10^−8. These solutions are buffered at pH=6 using to that end a 10 mM solution of 2-[N-morpholino]-ethanesulfonic acid (MES) the pH of which is adjusted to the desired value by means of adding a 1M solution of NaOH. The blank of this experiment is distilled and deionized water also buffered with MES but in which there is no product dissolved. […]

[2] = system: Lepidium sativum L. (watercress); experiment: phytotoxicity bioassay in Petri dishes, radicle length; assay type: in vivo; details: sigmoid type dose-response model, pH 6, 25° C., dark
Method: as §1, §2

Row | Compound | most affected L. rigidum biotype [1] | IC50 [2] [µM]
1 | O=C1COc2ccc(F)cc2N1O [Compound II, 6-fluoro-4-hydroxy-(2H)-1,4-benzoxazin-3(4H)-one] | the multiresistant biotype was the most affected | –
2 | O=C1COc2ccc(Cl)cc2N1O [VII, 6-chloro-4-hydroxy-(2H)-1,4-benzoxazin-3(4H)-one] | the opposite trend | ~0.058
